# What was measured:
# golden hamsters = assay: Dose effect on free choice ethanol intake in golden hamsters, i.p.; type: in vivo, golden hamster; details: i.p.
# Text: It is common practice in quantitative drug studies with rodents to use intraperitoneal (i.p.) administration to deliver drug doses accurately (Goodman and Gilman, 1975, The Pharmacological Basis of Therapeutics, 5th ed., Macmillan, N.Y., p. 8). In particular, this method avoids variability introduced by technical difficulties of oral administration via feeding (full versus empty stomach, etc.), variations in drug transport in the gastrointestinal tract (variations in intestinal fauna and flora, individual variations in absorption rate expected of outbred animals, etc.) and other factors. […] As a control 1 ml of sterile saline was injected i.p. daily during the baseline period (typically 7-9 days) that establishes drinking preference without the drug. Saline injection i.p. had no effect on the drinking behavior of golden hamsters. Ethanol was provided as a 20% solution. Hamsters could be used more than once (but were not used more than three times) in a cycle of baseline saline injections followed by drug injections, each cycle with the drug at a different dose.
# The response to daidzin treatment was computed as:
# % Response=(Vo -Vd)×100/Vo
# [1] = high doses; cited from earlier work
# [2] = Solubility in water / aqueous media
# ALDH-I = biological target: T1, ALDH-I (Homo sapiens, UniProt P05091); assay: Reversibility of ALDH-I inhibition (preincubation, then dilution); type: biochemical; parameters: A liver sample (50 g wet weight) with the usual Caucasian ALDH phenotype (both ALDH-I and ALDH-II present); from tissue; host or cells: human liver (autopsy), purified by CM-52, AMP-agarose and DEAE HPLC
# T1 sequence (P05091 18-517): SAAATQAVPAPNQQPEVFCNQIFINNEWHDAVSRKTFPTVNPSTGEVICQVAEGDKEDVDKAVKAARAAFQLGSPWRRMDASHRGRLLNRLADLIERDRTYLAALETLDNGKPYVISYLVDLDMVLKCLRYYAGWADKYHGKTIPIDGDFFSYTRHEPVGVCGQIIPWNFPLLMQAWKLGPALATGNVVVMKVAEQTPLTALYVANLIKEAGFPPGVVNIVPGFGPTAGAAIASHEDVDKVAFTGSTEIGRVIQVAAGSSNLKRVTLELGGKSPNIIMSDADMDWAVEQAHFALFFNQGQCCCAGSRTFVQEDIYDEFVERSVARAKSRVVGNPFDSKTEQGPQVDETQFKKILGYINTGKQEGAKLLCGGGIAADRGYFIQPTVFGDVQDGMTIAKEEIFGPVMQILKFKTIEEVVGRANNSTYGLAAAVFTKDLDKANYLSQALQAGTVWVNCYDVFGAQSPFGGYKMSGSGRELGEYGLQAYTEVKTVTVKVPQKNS
# ALDH-II [3] = biological target: T2, ALDH-II (Homo sapiens, UniProt P00352); assay: ALDH-II inhibition by structurally related compounds, acetaldehyde as substrate; type: biochemical; parameters: A liver sample (50 g wet weight) with the usual Caucasian ALDH phenotype (both ALDH-I and ALDH-II present); from tissue; host or cells: human liver (autopsy), purified by CM-52, AMP-agarose and DEAE HPLC
# T2 sequence (P00352 1-501): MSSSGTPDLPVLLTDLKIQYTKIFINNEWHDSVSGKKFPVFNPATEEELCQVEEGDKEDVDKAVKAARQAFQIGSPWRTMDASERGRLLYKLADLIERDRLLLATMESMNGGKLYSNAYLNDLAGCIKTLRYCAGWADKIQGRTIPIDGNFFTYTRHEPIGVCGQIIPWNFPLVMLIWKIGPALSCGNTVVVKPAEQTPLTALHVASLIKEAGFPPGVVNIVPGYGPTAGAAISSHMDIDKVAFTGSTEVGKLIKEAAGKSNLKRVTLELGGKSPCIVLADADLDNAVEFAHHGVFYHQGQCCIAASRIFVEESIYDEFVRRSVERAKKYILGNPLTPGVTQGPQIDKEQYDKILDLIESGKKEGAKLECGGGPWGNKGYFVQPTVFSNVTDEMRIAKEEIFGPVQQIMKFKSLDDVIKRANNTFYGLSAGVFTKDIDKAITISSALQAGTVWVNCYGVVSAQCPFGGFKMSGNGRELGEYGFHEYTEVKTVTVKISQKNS
# Method: *ALDH activities were assayed at 25° C. in 0.1 M sodium
# pyrophosphate buffer pH 9.5 containins 0.15 M KCl, 1 mM NAD^+, various
# concentrations of inhibitors and 5 and 200 μM acetaldehyde for ALDH-I
# and ALDH-II, respectively.
# For the study of the inhibition of ALDH-I by structurally related compounds to generate the data shown in Tables IV and V, each individual compound was dissolved at different concentrations in methanol and was added to the assay medium as 10 μL aliquots. For controls, 10 […] of methanol was added to the assay medium. In a standard ALDH-I assay, the assay medium contains 0.1 M sodium pyrophosphate pH 9.5, 0.15 M KCl, 1 mM NAD^+, 1% methanol, 5 μM acetaldehyde, 5-10 nM ALDH-I and various concentrations of inhibitor. The enzyme reaction rates were measured by monitoring the production of NADH at 340 nm (ε=6.22 mM^-1 cm^-1) with a Varian Cary 219 spectrophotometer thermostated at 25° C. (Fong et al., 1989, supra). The inhibition of ALDH-I by the inhibitors was calculated as: [formula]
# where Vo is the enzyme reaction rate measured in the absence of inhibitor, and where Vi is the enzyme reaction rate measured in the presence of inhibitor. […] IC50 values are related to the underlying Ki values.
# ALDH-II [4] = biological target: T2, ALDH-II; assay: Competitive inhibition of ALDH-II with acetaldehyde as substrate; type: biochemical; parameters: A liver sample (50 g wet weight) with the usual Caucasian ALDH phenotype (both ALDH-I and ALDH-II present); from tissue; host or cells: human liver (autopsy), purified by CM-52, AMP-agarose and DEAE HPLC
compound,measurement,setting,value
"O=c1c(-c2ccc(O)cc2)coc2cc(O[C@@H]3O[C@H](CO)[C@@H](O)[C@H](O)[C@H]3O)ccc12 [Daidzin, 7-glucoside of daidzein]",suppression of alcohol intake at 5 mg/day,"golden hamsters; 20% ethanol, 5 mg/day",20%
same,suppression of alcohol intake at 10 mg/day,"golden hamsters; 20% ethanol, 10 mg/day",50%
same,suppression of alcohol intake at 30 mg/day,"golden hamsters; 20% ethanol, 30 mg/day",80%
same,"EC50 or half-maximal response, suppression of alcohol intake",golden hamsters; golden hamsters,10 mg/day
same,estrogenic activity,[1],estrogenic activity at high doses
same,solubility,"physchem; 10% aqueous polyvinylpyrrolidone 40, organic solvent or mixture",~2000 µM
same,solubility,"physchem; 20% peg 400 in water, organic solvent or mixture",4500 µM
same,solubility,"physchem; 20% peg/water, beta-cyclodextrin, organic solvent or mixture",9400 µM
same,solubility,physchem; saturated digitonin solution,~2000 µM
same,solubility,physchem; water,200 µM
same,solubility in polyethylene glycol 400,[2]; PEG 400,highly soluble
same,solubility in glycerol,[2]; glycerol,highly soluble
same,reversibility of ALDH-I inhibition,ALDH-I,reversible
same,inhibition at 0.001 µM,ALDH-I; read-out: final inhibition after 100-fold dilution,2%
same,inhibition at 0.1 µM,ALDH-I; read-out: inhibition after preincubation with daidzin,70%
same,IC50,ALDH-II [3],20 µM
same,Ki,ALDH-II [4],28 µM

# Source: patent publication US6255497A, “Method for the inhibition of ALDH-I useful in the treatment of alcohol dependence or alcohol abuse” (priority 1998, dated 2001)
